“And” between values parts separate entries of the source, which are not always exact repeats. Identical values can stand only once. Toxic doses and inconclusive results are not listed. The calls were made as follows: active = survival T/C of 150% or more; inactive = T/C below 125% in these data.
Tested on: P388 leukemia ip, CD2F1 mice, survival T/C
Experiment: NCI In Vivo Anticancer Drug Screen. Data for tumor model P388 Leukemia (intraperitoneal) in CD2F1 (CDF1) mice
Details: endpoint: median survival time, higher = longer survival
Method in brief: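 Mice carrying the transplanted tumor received test compound or vehicle. Survival was recorded in each group, and the value is the treated-group measurement divided by that of the vehicle-treated control group.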

[1] = dose: 60.0 mg/kg/injection, schedule: Q01DX005 (ip), vehicle: saline with Tween-80
[2] = dose: 120.0 mg/kg/injection, schedule: Q01DX005 (ip), vehicle: saline with Tween-80
[3] = dose: 240.0 mg/kg/injection, schedule: Q01DX005 (ip), vehicle: saline with Tween-80
[4] = dose: 50.0 mg/kg/injection, schedule: Q01DX005 (ip), vehicle: saline with Tween-80
[5] = dose: 100.0 mg/kg/injection, schedule: Q01DX005 (ip), vehicle: saline with Tween-80
[6] = dose: 200.0 mg/kg/injection, schedule: Q01DX005 (ip), vehicle: saline with Tween-80
[7] = dose: 50.0 mg/kg/injection, schedule: Q01DX009 (ip), vehicle: saline with Tween-80
[8] = dose: 25.0 mg/kg/injection, schedule: Q01DX009 (ip), vehicle: other
[9] = dose: 100.0 mg/kg/injection, schedule: Q01DX009 (ip), vehicle: saline with Tween-80
[10] = dose: 200.0 mg/kg/injection, schedule: Q01DX009 (ip), vehicle: saline with Tween-80
[11] = dose: 30.0 mg/kg/injection, schedule: Q01DX005 (ip), vehicle: Klucel (hydroxypropylcellulose) (HPC)
[12] = dose: 12.5 mg/kg/injection, schedule: Q01DX009 (ip), vehicle: saline with Tween-80
[13] = dose: 25.0 mg/kg/injection, schedule: Q01DX009 (ip), vehicle: saline with Tween-80
[14] = dose: 60.0 mg/kg/injection, schedule: Q01DX005 (ip), vehicle: Klucel (hydroxypropylcellulose) (HPC)
[15] = dose: 120.0 mg/kg/injection, schedule: Q01DX005 (ip), vehicle: Klucel (hydroxypropylcellulose) (HPC)
[16] = dose: 240.0 mg/kg/injection, schedule: Q01DX005 (ip), vehicle: Klucel (hydroxypropylcellulose) (HPC)
[17] = dose: 50.0 mg/kg/injection, schedule: Q01DX005 (ip), vehicle: Klucel (hydroxypropylcellulose) (HPC)
[18] = dose: 100.0 mg/kg/injection, schedule: Q01DX005 (ip), vehicle: Klucel (hydroxypropylcellulose) (HPC)
[19] = dose: 200.0 mg/kg/injection, schedule: Q01DX005 (ip), vehicle: Klucel (hydroxypropylcellulose) (HPC)

Measured: T/C

CC(=O)OCCOCNC(=S)NN1CCOCC1
inactive: [1] 100 % of control | [2] 95 % of control | [3] 100 % of control

O=C(NN(CCN(NC(=O)c1ccccc1)C(=O)c1ccccc1)C(=O)c1ccccc1)c1ccccc1
inactive: [4] 99 % of control | [5] 92 % of control | [6] 96 % of control

NC1=NC(c2ccccc2O)CC(=O)N1 (configuration not stated)
inactive: dose: 50.0 mg/kg/injection, schedule: Q01DX009 (ip), vehicle: saline 103 % of control | dose: 100.0 mg/kg/injection, schedule: Q01DX009 (ip), vehicle: saline 111 % of control | dose: 200.0 mg/kg/injection, schedule: Q01DX009 (ip), vehicle: saline 110 % of control

CCCCCCC(=O)c1c(O)c2ccccc2oc1=O
inactive: [1] 100 % of control | [2] 88 % of control

CCCC(=O)C(=O)c1ccc(O)cc1O
inactive: dose: 50.0 mg/kg/injection, schedule: Q01DX009 (ip), vehicle: Klucel (hydroxypropylcellulose) (HPC) 108 % of control | dose: 100.0 mg/kg/injection, schedule: Q01DX009 (ip), vehicle: Klucel (hydroxypropylcellulose) (HPC) 116 % of control | dose: 200.0 mg/kg/injection, schedule: Q01DX009 (ip), vehicle: Klucel (hydroxypropylcellulose) (HPC) 119 % of control

NC(=S)N/N=C\c1nccc2ccc(N)cc12
inactive: [7] 94 % of control

N#CC(Br)C(N)=O (configuration not stated)
inactive: dose: 1.25 mg/kg/injection, schedule: Q01DX009 (ip), vehicle: saline with Tween-80 104 % of control | dose: 2.5 mg/kg/injection, schedule: Q01DX009 (ip), vehicle: saline with Tween-80 124 % of control | dose: 5.0 mg/kg/injection, schedule: Q01DX009 (ip), vehicle: saline with Tween-80 119 % of control

COc1ccc(OC)c(CC(C(C)=O)C(C)=O)c1
inactive: [8] 100 % of control | dose: 50.0 mg/kg/injection, schedule: Q01DX009 (ip), vehicle: other 105 % of control | dose: 100.0 mg/kg/injection, schedule: Q01DX009 (ip), vehicle: other 106 % of control | dose: 200.0 mg/kg/injection, schedule: Q01DX009 (ip), vehicle: other 108 % of control | dose: 400.0 mg/kg/injection, schedule: Q01DX009 (ip), vehicle: other 116 % of control

Cc1ccc2c(c1)C(O)(CC(=O)c1ccccc1)C(=O)N2 (configuration not stated)
inactive: [7] 99 % of control | [9] 96 % of control | [10] 95 % of control

CC1(C)N=C(N)N=C(N)N1c1cccc(CSc2ccccc2)c1
inactive: dose: 7.5 mg/kg/injection, schedule: Q01DX005 (ip), vehicle: Klucel (hydroxypropylcellulose) (HPC) 98 % of control | dose: 15.0 mg/kg/injection, schedule: Q01DX005 (ip), vehicle: Klucel (hydroxypropylcellulose) (HPC) 103 % of control | [11] 103 % of control

CCOC(=O)C(C(=O)c1ccccc1)c1cc(NS(=O)(=O)c2ccccc2)ccc1O (configuration not stated)
inactive: [12] 90 % of control | [13] 100 % of control | [7] 105 % of control | dose: 75.0 mg/kg/injection, schedule: Q04DX003 (ip), vehicle: saline with Tween-80 100 % of control | dose: 150.0 mg/kg/injection, schedule: Q04DX003 (ip), vehicle: saline with Tween-80 100 % of control | dose: 300.0 mg/kg/injection, schedule: Q04DX003 (ip), vehicle: saline with Tween-80 100 % of control

CCC(c1ccc(OC)cc1)C(NCC(=O)N/N=C/c1ccc(O)c(OC)c1)c1ccc(OC)cc1 (configuration not stated)
inactive: dose: 100.0 mg/kg/injection, schedule: Q01DX001 (ip), vehicle: saline with Tween-80 107 % of control | dose: 200.0 mg/kg/injection, schedule: Q01DX001 (ip), vehicle: saline with Tween-80 107 % of control | dose: 400.0 mg/kg/injection, schedule: Q01DX001 (ip), vehicle: saline with Tween-80 101 % of control

Cc1cn2c(n1)sc1ccccc12
inactive: [4] 96 % of control | [5] 95 % of control | [6] 95 % of control

CC(NC(=O)OCc1ccccc1)C(=O)NC1C(O)OC(CO)C(O)C1O (configuration not stated)
inactive: dose: 12.5 mg/kg/injection, schedule: Q01DX009 (ip), vehicle: other 96 % of control | [8] 100 % of control | dose: 25.0 mg/kg/injection, schedule: Q01DX009 (ip), vehicle: water 104 % of control | dose: 50.0 mg/kg/injection, schedule: Q01DX009 (ip), vehicle: water 93 % of control | dose: 100.0 mg/kg/injection, schedule: Q01DX009 (ip), vehicle: water 106 % of control | dose: 200.0 mg/kg/injection, schedule: Q01DX009 (ip), vehicle: water 102 % of control

CCCCCCCCSC1=C(Cl)C(=O)C(OC)=C(OC)C1=O
inactive: dose: 1.5 mg/kg/injection, schedule: Q04DX002 (ip), vehicle: saline with Tween-80 101 % of control | dose: 3.0 mg/kg/injection, schedule: Q04DX002 (ip), vehicle: saline with Tween-80 99 % of control | dose: 6.0 mg/kg/injection, schedule: Q04DX002 (ip), vehicle: saline with Tween-80 99 % of control | dose: 6.25 mg/kg/injection, schedule: Q01DX009 (ip), vehicle: saline with Tween-80 101 % of control | dose: 12.0 mg/kg/injection, schedule: Q04DX002 (ip), vehicle: saline with Tween-80 108 % of control | [12] 105 % of control | dose: 24.0 mg/kg/injection, schedule: Q04DX002 (ip), vehicle: saline with Tween-80 108 % of control | [13] 111 % of control | dose: 48.0 mg/kg/injection, schedule: Q04DX002 (ip), vehicle: saline with Tween-80 107 % of control

CC(=O)OCN(C)N=Nc1ccc(C(N)=O)cc1
inactive: [14] 92 % of control | [15] 95 % of control | [16] 95 % of control

O=C(CCl)NC(Cc1ccccc1)C(=O)O (configuration not stated)
inactive: [13] 99 % of control | [7] 99 % of control and 89 % of control | [9] 100 % of control and 104 % of control | [10] 94 % of control | dose: 400.0 mg/kg/injection, schedule: Q01DX009 (ip), vehicle: saline with Tween-80 103 % of control

CNc1c[nH]c(=O)[nH]c1=O
inactive: [17] 108 % of control | [18] 105 % of control | [19] 96 % of control

CNC(=S)N/N=C1/CCOC(C)/C1=N\NC(=S)NC (configuration not stated)
inactive: [4] 93 % of control | [5] 95 % of control | [6] 92 % of control

C/C(=N/NC(=S)NNC(=S)N(C)c1ccccc1)c1nccc2ccccc12
inactive: [4] 102 % of control | [5] 101 % of control | [6] 104 % of control

COC(=O)n1oc2c(Br)cc(Br)cc2c1=O
inactive: dose: 100.0 mg/kg/injection, schedule: Q04DX002 (ip), vehicle: Klucel (hydroxypropylcellulose) (HPC) 93 % of control | dose: 200.0 mg/kg/injection, schedule: Q04DX002 (ip), vehicle: Klucel (hydroxypropylcellulose) (HPC) 101 % of control | dose: 400.0 mg/kg/injection, schedule: Q04DX002 (ip), vehicle: Klucel (hydroxypropylcellulose) (HPC) 101 % of control

CC(C)(CCl)C(=O)NN=C(c1ccccc1)c1ccccc1
inactive: [7] 107 % of control | [9] 107 % of control | [10] 110 % of control

Cc1ccccc1NC(=O)C1C(=O)N(c2ccccc2C)C(=O)/C1=N/O (configuration not stated)
inactive: [1] 99 % of control | [2] 97 % of control | [3] 94 % of control

Nc1[nH]c(=S)[nH]c(=O)c1NS(=O)(=O)c1ccccc1
inactive: [11] 104 % of control and 106 % of control | [15] 98 % of control and 97 % of control | [16] 98 % of control and 108 % of control

CC(=O)NC(=S)Nc1ccccc1
inactive: dose: 25.0 mg/kg/injection, schedule: Q01DX001 (ip), vehicle: Klucel (hydroxypropylcellulose) (HPC) 100 % of control | dose: 50.0 mg/kg/injection, schedule: Q01DX001 (ip), vehicle: Klucel (hydroxypropylcellulose) (HPC) 101 % of control | dose: 100.0 mg/kg/injection, schedule: Q01DX001 (ip), vehicle: Klucel (hydroxypropylcellulose) (HPC) 103 % of control

CCCCCCCCNC1c2ccccc2CCC1O (configuration not stated)
inactive: dose: 25.0 mg/kg/injection, schedule: Q01DX005 (ip), vehicle: Klucel (hydroxypropylcellulose) (HPC) 97 % of control | [17] 94 % of control | [18] 97 % of control

CN(C)c1c2ccccc2c(NC=O)c2ccccc12
inactive: [14] 102 % of control | [15] 95 % of control | [16] 86 % of control

CCOC(=O)/C(C(=N)c1nc(C)c(C(=O)OCC)c(C(N)=O)n1)=C(/C)O
inactive: [17] 113 % of control | [18] 102 % of control and 90 % of control | [19] 90 % of control and 94 % of control
